According to paper PMC4705659, “Functional dichotomy in the 16S rRNA (m^1A1408) methyltransferase family and control of catalytic activity via a novel tryptophan mediated loop reorganization” (Nucleic Acids Research, 2015):

Key:
CacKam [1] = biological target: T1, CacKam (Catenulispora acidiphila, UniProt C7Q5P8, W203A); assay: biochemical; type: binding
T1 construct: gene Caci_9046; full length 250 residues, N-terminal hexahistidine tag with thrombin site kept; E. coli BL21 (DE3)
From the text: (§1) isothermal titration calorimetry on CacKam

CacKam [2] = biological target: T2, CacKam (Catenulispora acidiphila, UniProt C7Q5P8, W113F); assay: biochemical; type: binding
T2 construct: gene Caci_9046; full length 250 residues, N-terminal hexahistidine tag with thrombin site kept; E. coli BL21 (DE3)
T2 sequence (C7Q5P8 entry or part of it W113F): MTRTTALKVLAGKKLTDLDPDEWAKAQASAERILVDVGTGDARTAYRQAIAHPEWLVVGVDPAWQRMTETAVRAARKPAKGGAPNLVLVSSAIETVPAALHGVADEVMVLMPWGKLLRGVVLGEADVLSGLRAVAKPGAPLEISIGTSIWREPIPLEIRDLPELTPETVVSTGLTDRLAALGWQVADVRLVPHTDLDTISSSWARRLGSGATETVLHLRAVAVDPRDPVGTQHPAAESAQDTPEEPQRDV
From the text: as §1

CacKam [3] = biological target: T3, CacKam (Catenulispora acidiphila, UniProt C7Q5P8, S201A); assay: biochemical
T3 construct: gene Caci_9046
T3 sequence (C7Q5P8 entry or part of it S201A): as the sequence (C7Q5P8 entry or part of it W113F) above

CacKam [4] = biological target: T4, CacKam (Catenulispora acidiphila, UniProt C7Q5P8); conditions: 1 mM SAM; E. coli 30S subunits; 10 mM MgCl2; pH 7.5; 37 °C
T4 construct: gene Caci_9046
T4 sequence (C7Q5P8 entry or part of it): as the sequence (C7Q5P8 entry or part of it W113F) above

CacKam [5] = biological target: T5, CacKam (Catenulispora acidiphila, UniProt C7Q5P8, E94A); assay: biochemical
T5 construct: gene Caci_9046
T5 sequence (C7Q5P8 entry or part of it E94A): as the sequence (C7Q5P8 entry or part of it W113F) above

T1 sequence (C7Q5P8 entry or part of it W203A): as the sequence (C7Q5P8 entry or part of it W113F) above

SMILES: Nc1ncnc2c1ncn2[C@@H]1O[C@H](CSCC[C@H](N)C(=O)O)[C@@H](O)[C@H]1O [SAH]
- Kd (CacKam [1]): 5.1 µM
- Kd (CacKam [2]): 11 µM

SMILES: C[S+](CC[C@H](N)C(=O)O)C[C@H]1O[C@@H](n2cnc3c(N)ncnc32)[C@H](O)[C@@H]1O (stereo partly shown) [SAM]
- Kd (CacKam [3]): 110 µM
- Kd (CacKam [1]): 68 µM
- Kd (CacKam [2]): 103 µM
- 30S methylation, reverse transcription primer extension (CacKam [4]): Methylation by the wild-type enzyme was essentially the same under each condition as expected
- Kd (CacKam [5]): 29 µM
